# Assay results from publication PMC4823954, “From fighting depression to conquering tumors: a novel tricyclic thiazepine compound as a tubulin polymerization inhibitor” (Cell Death & Disease, 2016).
# Experiments:
# Test in all cases: KINOMEscan
# Assay type in all cases: binding
# Details in all cases: read-out: % Ctrl
# MKNK1 = biological target: T1, MKNK1 (Homo sapiens, UniProt Q9BUB5)
# T1 construct: purchased DiscoveRx KINOMEscan
# Procedure, shortened: (§1)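 Competition binding panel of 442 non-mutant kinases: test compound at 5 and 10 μM competed with an active-site-directed ligand for 1 h with shaking. Bound kinase was eluted with 0.5 μM ligand and quantified by qPCR; %Ctrl = (compound − positive control)/(DMSO − positive control) × 100, lower meaning tighter binding.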
# LATS2 = biological target: T2, LATS2 (Homo sapiens, UniProt Q9NRM7)
# T2 construct: purchased DiscoveRx KINOMEscan
# Procedure, shortened: as §1
# ULK2 = biological target: T3, ULK2 (Homo sapiens, UniProt Q8IYT8)
# T3 construct: purchased DiscoveRx KINOMEscan
# Procedure, shortened: as §1
# PLK1 = biological target: T4, PLK1 (Homo sapiens, UniProt P53350)
# T4 construct: purchased DiscoveRx KINOMEscan
# Procedure, shortened: as §1
# DYRK1B = biological target: T5, DYRK1B (Homo sapiens, UniProt Q9Y463)
# T5 construct: purchased DiscoveRx KINOMEscan
# Procedure, shortened: as §1
# MAP4K3 = biological target: T6, MAP4K3 (Homo sapiens, UniProt Q8IVH8)
# T6 construct: purchased DiscoveRx KINOMEscan
# Procedure, shortened: as §1
# NEK3 = biological target: T7, NEK3 (Homo sapiens, UniProt P51956)
# T7 construct: purchased DiscoveRx KINOMEscan
# Procedure, shortened: as §1
# ABL2 = biological target: T8, ABL2 (Homo sapiens, UniProt P42684)
# T8 construct: purchased DiscoveRx KINOMEscan
# Procedure, shortened: as §1
# MAP4K2 = biological target: T9, MAP4K2 (Homo sapiens, UniProt Q12851)
# T9 construct: purchased DiscoveRx KINOMEscan
# Procedure, shortened: as §1
# BRAF(V600E) = biological target: T10, BRAF(V600E) (Homo sapiens, UniProt P15056, V600E)
# T10 construct: purchased DiscoveRx KINOMEscan
# CAMK1G = biological target: T11, CAMK1G (Homo sapiens, UniProt Q96NX5)
# T11 construct: purchased DiscoveRx KINOMEscan
# T11 sequence (Q96NX5 whole entry): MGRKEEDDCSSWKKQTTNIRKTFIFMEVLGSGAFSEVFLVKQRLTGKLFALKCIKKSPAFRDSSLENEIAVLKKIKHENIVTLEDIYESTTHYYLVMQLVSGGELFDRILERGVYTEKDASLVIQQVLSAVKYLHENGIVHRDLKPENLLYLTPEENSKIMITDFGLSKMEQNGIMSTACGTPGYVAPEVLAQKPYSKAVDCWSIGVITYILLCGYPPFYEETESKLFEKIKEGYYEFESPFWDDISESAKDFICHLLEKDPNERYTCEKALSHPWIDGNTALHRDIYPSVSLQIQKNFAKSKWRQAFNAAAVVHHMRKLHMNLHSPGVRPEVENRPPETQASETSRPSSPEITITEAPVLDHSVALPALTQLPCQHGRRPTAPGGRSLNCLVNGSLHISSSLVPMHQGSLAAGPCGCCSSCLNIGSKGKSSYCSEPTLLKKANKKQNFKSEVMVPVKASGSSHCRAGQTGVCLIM
# Procedure, shortened: as §1
# GRK7 = biological target: T12, GRK7 (Homo sapiens, UniProt Q8WTQ7)
# T12 construct: purchased DiscoveRx KINOMEscan
# T12 sequence (Q8WTQ7 whole entry): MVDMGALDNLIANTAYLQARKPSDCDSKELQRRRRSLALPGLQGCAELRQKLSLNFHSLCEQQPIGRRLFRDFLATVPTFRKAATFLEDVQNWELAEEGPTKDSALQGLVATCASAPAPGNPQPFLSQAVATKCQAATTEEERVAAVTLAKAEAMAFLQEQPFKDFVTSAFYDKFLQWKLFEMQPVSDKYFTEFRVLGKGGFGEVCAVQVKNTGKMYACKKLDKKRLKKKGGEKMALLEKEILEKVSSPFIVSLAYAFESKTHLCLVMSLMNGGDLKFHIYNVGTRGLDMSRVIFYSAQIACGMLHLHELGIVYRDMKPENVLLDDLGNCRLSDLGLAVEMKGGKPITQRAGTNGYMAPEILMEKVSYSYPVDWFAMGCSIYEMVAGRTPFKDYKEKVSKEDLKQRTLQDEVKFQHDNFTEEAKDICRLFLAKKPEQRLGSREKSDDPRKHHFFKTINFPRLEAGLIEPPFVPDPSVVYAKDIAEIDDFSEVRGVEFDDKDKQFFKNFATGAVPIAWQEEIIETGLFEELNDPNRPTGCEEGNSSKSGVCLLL
# Procedure, shortened: as §1
# EGFR = biological target: T13, EGFR (Homo sapiens, UniProt P00533)
# T13 construct: purchased DiscoveRx KINOMEscan
# Procedure, shortened: as §1
# CAMK2B = biological target: T14, CAMK2B (Homo sapiens, UniProt Q13554)
# T14 construct: purchased DiscoveRx KINOMEscan
# Procedure, shortened: as §1
# EPHA8 = biological target: T15, EPHA8 (Homo sapiens, UniProt P29322)
# T15 construct: purchased DiscoveRx KINOMEscan
# Procedure, shortened: as §1
# [1] = biological target: T16, RSK3(Kin.Dom.2-C-terminal) (Homo sapiens, UniProt Q15349)
# T16 construct: RSK3(Kin.Dom.2-C-terminal); purchased DiscoveRx KINOMEscan
# T16 sequence (Q15349 389-733 limits assumed): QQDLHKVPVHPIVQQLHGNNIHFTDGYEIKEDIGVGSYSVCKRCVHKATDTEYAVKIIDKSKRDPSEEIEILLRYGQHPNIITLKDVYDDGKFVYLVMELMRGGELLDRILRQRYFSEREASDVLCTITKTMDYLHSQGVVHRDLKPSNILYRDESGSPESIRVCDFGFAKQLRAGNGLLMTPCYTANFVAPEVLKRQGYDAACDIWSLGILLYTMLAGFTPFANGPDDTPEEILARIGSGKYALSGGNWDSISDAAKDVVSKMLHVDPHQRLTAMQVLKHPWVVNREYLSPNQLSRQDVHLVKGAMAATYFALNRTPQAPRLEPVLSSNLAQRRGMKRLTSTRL
# Procedure, shortened: as §1
# RIPK1 = biological target: T17, RIPK1 (Homo sapiens, UniProt Q13546)
# T17 construct: purchased DiscoveRx KINOMEscan
# T17 sequence (Q13546 whole entry): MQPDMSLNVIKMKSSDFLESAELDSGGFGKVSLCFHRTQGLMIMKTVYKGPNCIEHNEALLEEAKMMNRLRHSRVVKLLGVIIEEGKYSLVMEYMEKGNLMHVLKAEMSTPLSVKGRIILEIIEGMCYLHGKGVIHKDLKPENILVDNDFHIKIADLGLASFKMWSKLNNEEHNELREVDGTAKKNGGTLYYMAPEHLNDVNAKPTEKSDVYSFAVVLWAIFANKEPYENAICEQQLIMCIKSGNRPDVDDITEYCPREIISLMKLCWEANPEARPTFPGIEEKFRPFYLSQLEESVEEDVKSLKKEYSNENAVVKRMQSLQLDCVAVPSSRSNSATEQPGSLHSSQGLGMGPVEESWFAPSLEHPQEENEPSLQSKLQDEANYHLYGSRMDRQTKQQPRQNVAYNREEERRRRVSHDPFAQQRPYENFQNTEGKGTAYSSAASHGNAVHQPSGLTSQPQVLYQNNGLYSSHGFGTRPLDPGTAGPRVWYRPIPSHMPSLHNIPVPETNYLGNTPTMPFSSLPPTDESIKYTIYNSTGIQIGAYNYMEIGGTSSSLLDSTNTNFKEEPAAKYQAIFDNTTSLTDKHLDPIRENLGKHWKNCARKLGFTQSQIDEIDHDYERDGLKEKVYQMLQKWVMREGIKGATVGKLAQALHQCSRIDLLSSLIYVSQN
# Procedure, shortened: as §1
# CTK = biological target: T18, CTK (Homo sapiens, UniProt P42679)
# T18 construct: purchased DiscoveRx KINOMEscan
# Procedure, shortened: as §1
# p38-beta = biological target: T19, p38-beta (Homo sapiens, UniProt Q15759)
# T19 construct: purchased DiscoveRx KINOMEscan
# Procedure, shortened: as §1
# LATS1 = biological target: T20, LATS1 (Homo sapiens, UniProt O95835)
# T20 construct: purchased DiscoveRx KINOMEscan
# T20 sequence (O95835 whole entry): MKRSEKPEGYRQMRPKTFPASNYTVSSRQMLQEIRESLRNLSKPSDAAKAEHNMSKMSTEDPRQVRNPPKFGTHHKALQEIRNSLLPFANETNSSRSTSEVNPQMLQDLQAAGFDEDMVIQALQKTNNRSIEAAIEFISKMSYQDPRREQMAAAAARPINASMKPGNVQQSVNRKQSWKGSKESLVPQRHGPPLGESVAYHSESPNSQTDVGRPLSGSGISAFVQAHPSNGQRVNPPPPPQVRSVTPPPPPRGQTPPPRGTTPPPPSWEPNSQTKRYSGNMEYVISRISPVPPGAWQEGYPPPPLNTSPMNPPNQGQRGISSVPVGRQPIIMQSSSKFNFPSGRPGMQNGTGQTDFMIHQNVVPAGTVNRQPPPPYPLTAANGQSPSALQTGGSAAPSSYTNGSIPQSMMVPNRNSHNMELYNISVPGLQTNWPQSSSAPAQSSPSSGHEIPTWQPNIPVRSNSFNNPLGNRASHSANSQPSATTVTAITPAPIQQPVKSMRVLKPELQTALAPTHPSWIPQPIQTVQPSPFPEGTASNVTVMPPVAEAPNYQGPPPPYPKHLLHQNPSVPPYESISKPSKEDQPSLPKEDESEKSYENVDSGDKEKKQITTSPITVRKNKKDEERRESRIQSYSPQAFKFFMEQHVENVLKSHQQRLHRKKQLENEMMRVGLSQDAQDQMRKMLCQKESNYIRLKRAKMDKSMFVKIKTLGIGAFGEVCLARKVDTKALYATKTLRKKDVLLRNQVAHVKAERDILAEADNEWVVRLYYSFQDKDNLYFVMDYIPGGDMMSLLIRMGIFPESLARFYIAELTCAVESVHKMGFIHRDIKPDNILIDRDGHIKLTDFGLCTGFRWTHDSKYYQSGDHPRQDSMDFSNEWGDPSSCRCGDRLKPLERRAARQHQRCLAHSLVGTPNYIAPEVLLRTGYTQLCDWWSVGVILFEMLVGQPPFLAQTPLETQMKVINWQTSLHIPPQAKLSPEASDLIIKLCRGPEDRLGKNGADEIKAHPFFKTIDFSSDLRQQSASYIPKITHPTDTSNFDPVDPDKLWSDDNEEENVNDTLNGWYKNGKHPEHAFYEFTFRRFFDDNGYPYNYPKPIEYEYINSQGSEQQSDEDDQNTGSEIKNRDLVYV
# Procedure, shortened: as §1
# VRK2 = biological target: T21, VRK2 (Homo sapiens, UniProt Q86Y07)
# T21 construct: purchased DiscoveRx KINOMEscan
# Procedure, shortened: as §1
# p38-alpha = biological target: T22, p38-alpha (Homo sapiens, UniProt Q16539)
# T22 construct: purchased DiscoveRx KINOMEscan
# T22 sequence (Q16539 whole entry): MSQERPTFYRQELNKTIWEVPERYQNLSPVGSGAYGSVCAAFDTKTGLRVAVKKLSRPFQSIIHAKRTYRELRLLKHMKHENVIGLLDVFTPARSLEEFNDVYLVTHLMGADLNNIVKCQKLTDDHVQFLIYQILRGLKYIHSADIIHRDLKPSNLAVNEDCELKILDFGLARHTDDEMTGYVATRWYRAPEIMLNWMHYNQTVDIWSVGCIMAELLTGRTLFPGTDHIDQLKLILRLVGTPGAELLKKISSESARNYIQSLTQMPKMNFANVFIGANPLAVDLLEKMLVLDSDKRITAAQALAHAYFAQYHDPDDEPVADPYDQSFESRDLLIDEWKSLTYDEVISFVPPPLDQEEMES
# Procedure, shortened: as §1
# RIPK2 = biological target: T23, RIPK2 (Homo sapiens, UniProt O43353)
# T23 construct: purchased DiscoveRx KINOMEscan
# Procedure, shortened: as §1
# BRSK1 = biological target: T24, BRSK1 (Homo sapiens, UniProt Q8TDC3)
# T24 construct: purchased DiscoveRx KINOMEscan
# T24 sequence (Q8TDC3 whole entry): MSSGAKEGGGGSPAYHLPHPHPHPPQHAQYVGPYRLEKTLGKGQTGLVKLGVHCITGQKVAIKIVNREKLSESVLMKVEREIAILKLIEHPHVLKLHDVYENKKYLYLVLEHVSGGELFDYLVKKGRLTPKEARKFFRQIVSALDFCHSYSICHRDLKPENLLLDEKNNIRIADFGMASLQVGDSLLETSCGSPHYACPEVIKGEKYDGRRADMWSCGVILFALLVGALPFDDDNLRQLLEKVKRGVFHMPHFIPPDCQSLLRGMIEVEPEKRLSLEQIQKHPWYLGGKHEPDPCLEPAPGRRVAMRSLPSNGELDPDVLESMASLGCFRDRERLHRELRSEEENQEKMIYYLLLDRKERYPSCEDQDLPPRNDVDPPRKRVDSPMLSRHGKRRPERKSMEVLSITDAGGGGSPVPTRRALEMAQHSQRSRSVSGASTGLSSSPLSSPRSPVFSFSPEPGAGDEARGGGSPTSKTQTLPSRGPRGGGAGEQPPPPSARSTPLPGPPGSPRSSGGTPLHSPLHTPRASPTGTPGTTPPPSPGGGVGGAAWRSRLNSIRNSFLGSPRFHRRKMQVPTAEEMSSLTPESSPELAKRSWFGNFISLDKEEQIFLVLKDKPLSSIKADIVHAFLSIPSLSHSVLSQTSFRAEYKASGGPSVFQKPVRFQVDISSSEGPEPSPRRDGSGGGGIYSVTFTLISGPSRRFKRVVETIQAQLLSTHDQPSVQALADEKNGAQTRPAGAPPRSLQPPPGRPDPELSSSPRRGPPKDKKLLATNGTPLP
# Procedure, shortened: as §1
# S6K1 = biological target: T25, S6K1 (Homo sapiens, UniProt P23443)
# T25 construct: purchased DiscoveRx KINOMEscan
# Procedure, shortened: as §1
# PYK2 = biological target: T26, PYK2 (Homo sapiens, UniProt Q14289)
# T26 construct: purchased DiscoveRx KINOMEscan
# Procedure, shortened: as §1
# CLK3 = biological target: T27, CLK3 (Homo sapiens, UniProt P49761)
# T27 construct: purchased DiscoveRx KINOMEscan
# Procedure, shortened: as §1
# TYRO3 = biological target: T28, TYRO3 (Homo sapiens, UniProt Q06418)
# T28 construct: purchased DiscoveRx KINOMEscan
# Procedure, shortened: as §1
# [2] = biological target: T29, JAK1(JH2domain-pseudokinase) (Homo sapiens, UniProt P23458)
# T29 construct: JAK1(JH2domain-pseudokinase); purchased DiscoveRx KINOMEscan
# Procedure, shortened: as §1
# EPHB1 = biological target: T30, EPHB1 (Homo sapiens, UniProt P54762)
# T30 construct: purchased DiscoveRx KINOMEscan
# Procedure, shortened: as §1
# T1 sequence (Q9BUB5 whole entry): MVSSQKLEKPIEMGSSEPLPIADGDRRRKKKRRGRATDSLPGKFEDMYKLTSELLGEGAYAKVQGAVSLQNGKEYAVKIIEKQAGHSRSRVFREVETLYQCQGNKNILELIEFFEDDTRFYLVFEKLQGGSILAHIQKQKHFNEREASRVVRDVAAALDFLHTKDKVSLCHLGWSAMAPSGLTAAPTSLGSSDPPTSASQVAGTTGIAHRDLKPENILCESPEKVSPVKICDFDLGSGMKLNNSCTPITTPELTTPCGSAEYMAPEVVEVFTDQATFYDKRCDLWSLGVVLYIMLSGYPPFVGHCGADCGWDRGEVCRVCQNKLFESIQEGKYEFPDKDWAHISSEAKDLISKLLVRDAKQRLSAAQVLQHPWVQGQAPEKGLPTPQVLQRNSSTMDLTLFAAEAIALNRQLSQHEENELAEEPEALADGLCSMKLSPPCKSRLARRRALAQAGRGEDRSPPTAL
compound,measurement,setting,value
"Cc1ccc(C2=Nc3cccnc3S(=O)(=O)c3ccccc32)cc1 [TBPT, 6-(p-tolyl)benzo[f] pyrido[2,3-b][1,4] thiazepine 11,11-dioxide]",remaining binding at 5 µM,MKNK1; 5 μM,36%
same,remaining binding at 10 µM,MKNK1; 10 μM,100%
same,remaining binding at 5 µM,LATS2; 5 μM,100%
same,remaining binding at 10 µM,LATS2; 10 μM,100%
same,remaining binding at 5 µM,ULK2; 5 μM,91%
same,remaining binding at 10 µM,ULK2; 10 μM,92%
same,remaining binding at 5 µM,PLK1; 5 μM,76%
same,remaining binding at 10 µM,PLK1; 10 μM,80%
same,remaining binding at 5 µM,DYRK1B; 5 μM,99%
same,remaining binding at 10 µM,DYRK1B; 10 μM,100%
same,remaining binding at 5 µM,MAP4K3; 5 μM,75%
same,remaining binding at 10 µM,MAP4K3; 10 μM,91%
same,remaining binding at 5 µM,NEK3; 5 μM,100%
same,remaining binding at 10 µM,NEK3; 10 μM,100%
same,remaining binding at 5 µM,ABL2; 5 μM,80%
same,remaining binding at 10 µM,ABL2; 10 μM,97%
same,remaining binding at 5 µM,MAP4K2; 5 μM,92%
same,remaining binding at 10 µM,MAP4K2; 10 μM,100%
same,remaining binding at 5 µM,BRAF(V600E); 5 μM,94%
same,remaining binding at 10 µM,BRAF(V600E); 10 μM,94%
same,remaining binding at 5 µM,CAMK1G; 5 μM,100%
same,remaining binding at 10 µM,CAMK1G; 10 μM,100%
same,remaining binding at 5 µM,GRK7; 5 μM,100%
same,remaining binding at 10 µM,GRK7; 10 μM,100%
same,remaining binding at 5 µM,EGFR; 5 μM,100%
same,remaining binding at 10 µM,EGFR; 10 μM,91%
same,remaining binding at 5 µM,CAMK2B; 5 μM,100%
same,remaining binding at 10 µM,CAMK2B; 10 μM,100%
same,remaining binding at 5 µM,EPHA8; 5 μM,96%
same,remaining binding at 10 µM,EPHA8; 10 μM,93%
same,remaining binding at 5 µM,[1]; 5 μM,100%
same,remaining binding at 10 µM,[1]; 10 μM,100%
same,remaining binding at 5 µM,RIPK1; 5 μM,100%
same,remaining binding at 10 µM,RIPK1; 10 μM,100%
same,remaining binding at 5 µM,CTK; 5 μM,94%
same,remaining binding at 10 µM,CTK; 10 μM,100%
same,remaining binding at 5 µM,p38-beta; 5 μM,100%
same,remaining binding at 10 µM,p38-beta; 10 μM,76%
same,remaining binding at 5 µM,LATS1; 5 μM,100%
same,remaining binding at 10 µM,LATS1; 10 μM,100%
same,remaining binding at 5 µM,VRK2; 5 μM,100%
same,remaining binding at 10 µM,VRK2; 10 μM,69%
same,remaining binding at 5 µM,p38-alpha; 5 μM,63%
same,remaining binding at 10 µM,p38-alpha; 10 μM,100%
same,remaining binding at 5 µM,RIPK2; 5 μM,92%
same,remaining binding at 10 µM,RIPK2; 10 μM,97%
same,remaining binding at 5 µM,BRSK1; 5 μM,100%
same,remaining binding at 10 µM,BRSK1; 10 μM,97%
same,remaining binding at 5 µM,S6K1; 5 μM,100%
same,remaining binding at 10 µM,S6K1; 10 μM,88%
same,remaining binding at 5 µM,PYK2; 5 μM,100%
same,remaining binding at 10 µM,PYK2; 10 μM,100%
same,remaining binding at 5 µM,CLK3; 5 μM,100%
same,remaining binding at 10 µM,CLK3; 10 μM,100%
same,remaining binding at 5 µM,TYRO3; 5 μM,99%
same,remaining binding at 10 µM,TYRO3; 10 μM,100%
same,remaining binding at 5 µM,[2]; 5 μM,100%
same,remaining binding at 10 µM,[2]; 10 μM,100%
same,remaining binding at 5 µM,EPHB1; 5 μM,100%
same,remaining binding at 10 µM,EPHB1; 10 μM,100%
